Data from patent US20250163047A1, “HETEROCYCLIC COMPOUNDS, COMPOSITIONS THEREOF, AND METHODS OF TREATMENT THEREWITH” (BeiGene, Ltd., priority 2022, published 2025).

Columns and labels:
Cbl (aa49-434) = target: T1, Cbl (aa49-434) (Homo sapiens, UniProt P22681); experiment: Co-expressed Cbl with BirA biochemical assay (CBL/E2-Ub binding, HTRF); settings: 0.6 nM Cbl co-expressed with BirA, read-out: co-express CBL/E2-Ub-binding assay IC50
T1 construct: Cbl (aa49-434, in-house); made in house
T1 sequence (P22681 49-434): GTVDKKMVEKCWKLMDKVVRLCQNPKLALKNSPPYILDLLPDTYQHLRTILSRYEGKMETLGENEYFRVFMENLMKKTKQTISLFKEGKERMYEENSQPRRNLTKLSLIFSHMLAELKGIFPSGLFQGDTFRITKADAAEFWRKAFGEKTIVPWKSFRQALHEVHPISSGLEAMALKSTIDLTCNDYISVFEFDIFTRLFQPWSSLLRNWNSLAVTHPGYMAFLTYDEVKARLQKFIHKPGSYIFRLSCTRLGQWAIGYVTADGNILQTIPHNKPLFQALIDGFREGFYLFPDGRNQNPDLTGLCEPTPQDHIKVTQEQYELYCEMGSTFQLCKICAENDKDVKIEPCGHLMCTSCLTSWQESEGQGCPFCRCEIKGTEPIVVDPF
Description: (§1) The assay in the absence of a Cbl-b/Cbl inhibitor, where phosphorylation of Cbl-b/Cbl by the Src kinase allows UbcH5B-Ub to bind to Cbl-b/Cbl and brings the Bodipy-Fluorescein tagged ubiquitin in proximity to the streptavidin-terbium bound to the N-terminal biotinylated Avi-tagged Cbl-b/Cbl. […] The lack of a FRET signal indicates Cbl-b/Cbl is inhibited by the Cbl-b/Cbl inhibitor.

Cbl-b (aa36-427) = target: T2, Cbl-b (aa36-427) (Homo sapiens, UniProt Q13191); experiment: Co-expressed Cbl-b with BirA biochemical assay (CBLB/E2-Ub binding, HTRF); settings: 0.6 nM Cbl-b co-expressed with BirA, HTRF; read-out: co-express CBLB/E2-Ub-binding assay IC50
T2 construct: Cbl-b (aa36-427, in-house); made in house
Description: as §1

T2 sequence (Q13191 36-427): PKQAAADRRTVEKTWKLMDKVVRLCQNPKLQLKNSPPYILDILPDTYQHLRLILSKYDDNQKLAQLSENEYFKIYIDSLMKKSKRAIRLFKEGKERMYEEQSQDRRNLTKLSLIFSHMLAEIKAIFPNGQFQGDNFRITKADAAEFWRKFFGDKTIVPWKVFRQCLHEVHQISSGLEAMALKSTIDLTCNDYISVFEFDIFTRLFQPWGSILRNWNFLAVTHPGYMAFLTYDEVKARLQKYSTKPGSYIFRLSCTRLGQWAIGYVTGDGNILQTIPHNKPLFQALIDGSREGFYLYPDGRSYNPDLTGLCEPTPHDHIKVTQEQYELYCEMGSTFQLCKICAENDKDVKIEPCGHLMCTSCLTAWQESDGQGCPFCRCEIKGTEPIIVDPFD

Structure (SMILES) | IC50 (Cbl (aa49-434)) [nM] | IC50 (Cbl-b (aa36-427)) [nM]
Cn1cnnc1[C@]1(c2cncc(NC(=O)c3cc(CNC4(C)CCC4)c4[nH]ccc4n3)c2)C[C@H](C)C1 [Compound B50, N-(5-((1s, 3s)-3-methyl-1-(4-methyl-4H-1,2,4-triazol-3-yl)cyclobutyl)pyridin-3-yl)-7-(((1-methylcyclobutyl)amino)methyl)-1H-pyrrolo[3,2-b]pyridine-5-carboxamide] | 9.3 | 1.5
Cc1cnc2c(C(=O)Nc3cccc([C@]4(c5nncn5C)C[C@@H](CC#N)C4)c3)cc(CN3CC[C@H](F)[C@H](C)C3)cn12 [Compound A47, N-(3-((1s,3S)-3-(cyanomethyl)-1-(4-methyl-4H-1,2,4-triazol-3-yl)cyclobutyl)phenyl)-6-(((3R,4S)-4-fluoro-3-methylpiperidin-1-yl)methyl)-3-methylimidazo[1,2-a]pyridine-8-carboxamide] | 7 | 1.4
Cn1cnnc1[C@]1(c2cccc(NC(=O)c3cc(CN[C@H]4CCC(F)(F)C4)c4[nH]ccc4n3)c2)C[C@H](CC#N)C1 [Compound B17, N-(3-((1s,3S)-3-(cyanomethyl)-1-(4-methyl-4H-1,2,4-triazol-3-yl)cyclobutyl)phenyl)-7-((((R)-3,3-difluorocyclopentyl)amino)methyl)-1H-pyrrolo[3,2-b]pyridine-5-carboxamide] | 3.84 | 1.22
Cn1cnnc1[C@]1(c2cncc(NC(=O)c3cc(CNCC4CCC4)c4ccsc4n3)c2)C[C@H](C)C1 [Compound B15, 4-(((cyclobutylmethyl)amino)methyl)-N-(5-((1s, 3s)-3-methyl-1-(4-methyl-4H-1,2,4-triazol-3-yl)cyclobutyl)pyridin-3-yl)thieno[2,3-b]pyridine-6-carboxamide] | 1.9 | 0.9
C[C@H]1CCCN(Cc2cc(C(=O)Nc3cccc([C@]4(c5nncn5C)C[C@@H](CC#N)C4)c3)n3ncc(F)c3c2)C1 [Compound A20, 3-fluoro-5-{[(3S)-3-methylpiperidin-1-yl]methyl}-N-{3-[(1s, 3s)-3-(cyanomethyl)-1-(4-methyl-1,2,4-triazol-3-yl)cyclobutyl]phenyl}pyrazolo[1,5-a]pyridine-7-carboxamide] | 26.5 | 3
Cn1cnnc1[C@]1(c2cncc(NC(=O)c3cc(CNC4(C)CC4)c4ccsc4n3)c2)C[C@H](C)C1 [Compound B51, N-(5-((1s, 3s)-3-methyl-1-(4-methyl-4H-1,2,4-triazol-3-yl)cyclobutyl)pyridin-3-yl)-4-(((1-methylcyclopropyl)amino)methyl)thieno[2,3-b]pyridine-6-carboxamide] | 13 | 1.4
Cn1cnnc1[C@]1(c2cncc(NC(=O)c3cc(CNC4(C)CCC4)cn4c(F)cnc34)c2)C[C@H](C)C1 [Compound A76, 3-fluoro-N-(5-((1s, 3s)-3-methyl-1-(4-methyl-4H-1,2,4-triazol-3-yl)cyclobutyl)pyridin-3-yl)-6-(((1-methylcyclobutyl)amino)methyl)imidazo[1,2-a]pyridine-8-carboxamide] | 8.3 | 2.6
Cc1c[nH]c2c(CN3CC[C@H](F)[C@H](C)C3)cc(C(=O)Nc3cccc([C@]4(c5nncn5C)C[C@@H](C)C4)c3)nc12 [Compound B34, 7-(((3R,4S)-4-fluoro-3-methylpiperidin-1-yl)methyl)-3-methyl-N-(3-((1s,3S)-3-methyl-1-(4-methyl-4H-1,2,4-triazol-3-yl)cyclobutyl)phenyl)-1H-pyrrolo[3,2-b]pyridine-5-carboxamide] | 5.5 | 1.6

The remaining lines, values ahead:

IC50 (Cbl (aa49-434)) [nM] | IC50 (Cbl-b (aa36-427)) [nM] | Structure (SMILES)
9.6 | 4.2 | Cn1cnnc1[C@]1(c2cncc(NC(=O)c3cc(CNCC4CCC4)c4c(n3)C(C)(C)CC4)c2)C[C@H](C)C1 [Compound C29, 4-(((cyclobutylmethyl)amino)methyl)-7,7-dimethyl-N-(5-((1s, 3s)-3-methyl-1-(4-methyl-4H-1,2,4-triazol-3-yl)cyclobutyl)pyridin-3-yl)-6,7-dihydro-5H-cyclopenta[b]pyridine-2-carboxamide]
17 | 3.9 | Cn1cnnc1[C@]1(c2cccc(NC(=O)c3cc(CNC4(C)CCC4)c4c(n3)C3(CC3)CN4)c2)C[C@H](CC#N)C1 [Compound C31, N-(3-((1s, 3s)-3-(cyanomethyl)-1-(4-methyl-4H-1,2,4-triazol-3-yl)cyclobutyl)phenyl)-7′-(((1-methylcyclobutyl)amino)methyl)-1′,2′-dihydrospiro[cyclopropane-1,3′-pyrrolo[3,2-b]pyridine]-5′-carboxamide]
9.2 | 1.1 | C[C@H]1CCCN(Cc2cc(C(=O)Nc3cccc([C@]4(c5nncn5C)C[C@@H](CC#N)C4)c3)nc3c2NCC3(C)C)C1 [Compound C13, 3,3-dimethyl-7-{[(3S)-3-methylpiperidin-1-yl]methyl}-N-{3-[(1s, 3s)-3-(cyanomethyl)-1-(4-methyl-1,2,4-triazol-3-yl)cyclobutyl]phenyl}-1H,2H-pyrrolo[3,2-b]pyridine-5-carboxamide]
15.8 | 3.7 | CC(C)CNCc1cc(C(=O)Nc2cncc([C@]3(c4nncn4C)C[C@@H](C)C3)c2)nc2c1CCC2(F)F [Compound C53, 7,7-difluoro-4-{[(2-methylpropyl)amino]methyl}-N-{5-[(1r, 3s)-3-methyl-1-(4-methyl-1,2,4-triazol-3-yl)cyclobutyl]pyridin-3-yl}-5H,6H-cyclopenta[b]pyridine-2-carboxamide]
3.3 | 0.8 | C[C@H](NCc1cc(C(=O)Nc2cccc([C@]3(c4nncn4C)C[C@@H](CC#N)C3)c2)nc2c1OCC2(C)C)C1CCC1 [Compound C28, 7-({[(1S)-1-cyclobutylethyl]amino}methyl)-3,3-dimethyl-N-{3-[(1s, 3s)-3-(cyanomethyl)-1-(4-methyl-1,2,4-triazol-3-yl)cyclobutyl]phenyl}-2H-furo[3,2-b]pyridine-5-carboxamide]
6.1 | 1.4 | Cn1cnnc1[C@]1(c2cccc(NC(=O)c3cc(CNCC4(C)CCCC4)c4c(n3)C(C)(C)CN4)c2)C[C@H](CC#N)C1 [Compound C22, 3,3-dimethyl-7-({[(1-methylcyclopentyl)methyl]amino}methyl)-N-{3-[(1s, 3s)-3-(cyanomethyl)-1-(4-methyl-1,2,4-triazol-3-yl)cyclobutyl]phenyl}-1H,2H-pyrrolo[3,2-b]pyridine-5-carboxamide]
3.2 | 1.7 | C[C@@H]1CN(Cc2cc(C(=O)Nc3cncc([C@]4(c5nncn5C)C[C@@H](C)C4)c3)nc3c2NCC3(C)C)CC[C@@H]1F [Compound C58, 7-(((3R,4S)-4-fluoro-3-methylpiperidin-1-yl)methyl)-3,3-dimethyl-N-(5-((1s,3S)-3-methyl-1-(4-methyl-4H-1,2,4-triazol-3-yl)cyclobutyl)pyridin-3-yl)-2,3-dihydro-1H-pyrrolo[3,2-b]pyridine-5-carboxamide]
7.3 | 2.5 | C[C@H](NCc1cc(C(=O)Nc2cccc([C@]3(c4nncn4C)C[C@@H](C)C3)c2)nc2c1CCC2(F)F)C1CCC1 [Compound C59, 4-((((S)-1-cyclobutylethyl)amino)methyl)-7,7-difluoro-N-(3-((1s,3R)-3-methyl-1-(4-methyl-4H-1,2,4-triazol-3-yl)cyclobutyl)phenyl)-6,7-dihydro-5H-cyclopenta[b]pyridine-2-carboxamide]
24.4 | 3.8 | C[C@H](NCc1cc(C(=O)Nc2cccc([C@]3(c4nncn4C)C[C@@H](C)C3)c2)nc2c1OCC2(C)C)C1CC1 [Compound C35, 7-((((S)-1-cyclopropylethyl)amino)methyl)-3,3-dimethyl-N-(3-((1s,3R)-3-methyl-1-(4-methyl-4H-1,2,4-triazol-3-yl)cyclobutyl)phenyl)-2,3-dihydrofuro[3,2-b]pyridine-5-carboxamide]
2.6 | 0.5 | Cn1cnnc1[C@]1(c2cccc(NC(=O)c3cc(CNCC4CCC4)c4c(n3)C(F)(F)CC4)c2)C[C@H](C)C1 [Compound C56, 4-(((cyclobutylmethyl)amino)methyl)-7,7-difluoro-N-(3-((1s, 3s)-3-methyl-1-(4-methyl-4H-1,2,4-triazol-3-yl)cyclobutyl)phenyl)-6,7-dihydro-5H-cyclopenta[b]pyridine-2-carboxamide]
17.7 | 1.8 | Cn1cnnc1[C@]1(c2cccc(NC(=O)c3cc(CNC4(C)CCC4)c4c(n3)C(C)(C)CN4)c2)C[C@H](CC#N)C1 [Compound C21, N-(3-((1s, 3s)-3-(cyanomethyl)-1-(4-methyl-4H-1,2,4-triazol-3-yl)cyclobutyl)phenyl)-3,3-dimethyl-7-(((1-methylcyclobutyl)amino)methyl)-2,3-dihydro-1H-pyrrolo[3,2-b]pyridine-5-carboxamido]
